{
  "source": "patent US20130295179A1",
  "about": "“NOVEL OMEGA-3 AND OMEGA-6 FATTY ACID COMPOSITIONS AND USES THEREOF” (priority 2010, published 2013)",
  "type_in_all_cases": "in vivo, human",
  "key": {"[1]": {"test_system": "Newly diagnosed ADHD children", "assay": "RCT of omega-3/6 alone or in combination with methylphenidate, one year follow-up (Example 6)", "settings": "evaluated by the parents", "description": "Newly diagnosed ADHD children of both genders, 6 to 12 years old, were included in a RCT with one year follow-up in a 3-arm design (A: Omega-3/6; B: Omega 3/6+MTP; and C: MTP). The omega-3/6 fatty acid dosage used was EPA/DHA/GLA (9:3:1) in a total of 792 mg/day (Equazen™). MTP was prescribed in a dosage of 1 mg/kg/day (titration).\nThe ADHD diagnosis and follow up were made using the Diagnostic and Statistical Manual of Mental Disorders fourth edition (DSM-IV) scale, the ADHD Rating Scale Spanish version (ADHD-RS-VE), and the CEAL (Latin-American scale for ADHD) and overall clinical impression (CGI). For clinically meaningful response, a reduction of at least 25% of the symptoms was used. The adverse events (AE) were evaluated by the parents based on the impact on the patients."}, "[2]": {"test_system": "children between 6 and 12 years of age with a newly diagnosed ADHD", "assay": "ADHD Rating Scale Spanish version (parent ADHD-RS-SV), randomized pilot trial (Example 7)", "description": "(§1) The trial was performed at the Neurology Department of the Hospital Infantil de México Federico Gomez (Health National Institute for children's in Mexico) as a randomized pilot trial. Three treatment groups were compared: group A: MTP; group B: Omega 3/6; group C: MTP+Omega 3/6. Subjects were randomized to one of these groups after screening. After inclusion to the trial, the subjects underwent three different trial periods: the 4 weeks titration period (only for the group A and group C in relation to the MTP), the 12 months evaluation period and the 6 months follow up period (FIG. 1)\n(§2) A total of 107 children between 6 and 12 years of age with a newly diagnosed ADHD entered the screening phase of the trial. The presence of any previous ADHD treatment was an exclusion criterion. 17 children were screening failures and could not be included to the trial. After written informed consent by the parents or tutors of the children, a total of 90 patients were distributed to the three groups following a randomization to the three groups against a set of arbitrary numbers.\nInclusion criteria: Patients from 6 to 12 years old, diagnosed as having attention-deficit hyperactivity disorder by the DSM-IV, agreement to take part in the survey (letter of informed consent signed by the parent or tutor and letter of acknowledgement). Exclusion criteria: any Axis I psychiatric diagnosis other than ADHD except oppositional defiant behaviour disorder, neurological deficit, seizures or tics; previous treatment of suitable doses of methylphenidate; patients with known hypersensitivity to omega-3.\n(§3) The omega-3/omega6 fatty acid supplement was used. The daily dosage of this omega 3/6 was of three capsules twice daily, corresponding to a daily dose of 558 mg EPA, 174 mg DHA and 60 mg gamma-linolenic. This specific product was chosen because it was the product and the daily dosage used in three previous clinical studies showing significant positive improvements on ADHD related symptoms without showing significant adverse events.\n(§4) The stimulant used in this trial was short or long acting methylphenidate (hereafter termed MTP). The daily dose was calculated to start at a concentration of 0.5 mg/kg/day to reach a maximum of 1 mg/kg/day depending on the response and the tolerance. The doses were adjusted weekly.\n(§5) Clinical assessments were made at four time points: at baseline, after 3 months, after 6 months and after 12 months. The study consisted in six stages with a total of 12 visits including the screening visit (screening visit 0) and the period of selection and titration of the medication in the case of the group A & C (first 4 weeks). At baseline all the included patients were newly diagnosed with ADHD being drug-naïve (no previous treatment with omega 3/6, MTP or atomoxetine was permitted). ADHD diagnosis was made for patients who met DMS-IV criteria of any subtype and by using the ADHD-RS-VE (Spanish version) and the CEAL (Latin American scale for ADHD). The presence of any associated condition (comorbidity) was assessed by clinical interview according to DSM-IV criteria. The investigator made a medical evaluation, including weight, height, cephalic perimeter, neurological evaluation, sleep patrons and other comorbidities. A questionnaire for the symptoms of fatty acids deficiency was applied, where 0 means without symptoms and 3 with a high degree of symptoms. We analyzed blood samples for biometry hematic and hepatic function.\n(§6) For clinically meaningful response, definition of clinical trials with ADHD medications was used, that is: a reduction of at least 25% of the symptoms scores on the ADHD-RS scale. The other important variable was the permanence time in the study measuring efficacy and tolerability. The overall clinical impression of symptom severity and functional impairment was measured with the CGI severity scale, which is a clinician rating of the patient's symptom severity related to the clinician's total experience with ADHD patients. […]"}, "[3]": {"test_system": "children between 6 and 12 years of age with a newly diagnosed ADHD", "assay": "Clinical Global Impression (CGI) severity, randomized pilot trial (Example 7)", "description": "as §1, §2, §3, §4, §5, §6"}, "[4]": {"test_system": "children between 6 and 12 years of age with a newly diagnosed ADHD", "assay": "Side effects / adverse events, randomized pilot trial (Example 7)", "description": "as §1, §2, §3, §4\nThe patients was evaluated at baseline including a physical examination, including height and weight, pulse and blood pressure, a neuromotor examination and assessment of the general level of functioning with CGI. We evaluated each week for the first four weeks and each month for a year. The adverse events (AE) were evaluated at any clinic event appointed by the parents and with an impact over the patients, independently if it was associated or not with the medication. This includes exacerbation of the preexistence symptoms. It was important to note the moment of these AE."}, "[5]": {"test_system": "children between 6 and 12 years of age with a newly diagnosed ADHD", "assay": "Continuity in the study, withdrawals and MTP dose needed, randomized pilot trial (Example 7)", "settings": "12 months, n = 30 per group", "description": "The trial was performed at the Neurology Department of the Hospital Infantil de México Federico Gomez (Health National Institute for children's in Mexico) as a randomized pilot trial. Three treatment groups were compared: group A: MTP; group B: Omega 3/6; group C: MTP+Omega 3/6. Subjects were randomized to one of these groups after screening. After inclusion to the trial, the subjects underwent three different trial periods: the 4 weeks titration period (only for the group A and group C in relation to the MTP), the 12 months evaluation period and the 6 months follow up period (FIG. 1) […]\nThe stimulant used in this trial was short or long acting methylphenidate (hereafter termed MTP). The daily dose was calculated to start at a concentration of 0.5 mg/kg/day to reach a maximum of 1 mg/kg/day depending on the response and the tolerance. […]\nFor clinically meaningful response, definition of clinical trials with ADHD medications was used, that is: a reduction of at least 25% of the symptoms scores on the ADHD-RS scale. […] The overall clinical impression of symptom severity and functional impairment was measured with the CGI severity scale, which is a clinician rating of the patient's symptom severity related to the clinician's total experience with ADHD patients. […]"}, "[6]": {"settings": "in % of the subjects, n = 30 per group"}},
  "note": "“And” between values parts separate entries of the source, which are not always exact repeats. Equal values may be shown once.",
  "data": [
    {"smiles": "COC(=O)C(c1ccccc1)C1CCCCN1", "note": "(stereo not drawn) [MTP, methylphenidate]", "values": [
      {"measurement": "most frequent AE", "setting": "[1]", "result": "weight reduction, hyporexia, and anxiety"},
      {"measurement": "ADHD RS total score after one month", "setting": "[2]; after one month treatment", "result": "27.6±4.97"},
      {"measurement": "response of the hyperactivity symptom", "setting": "[2]; comparison of the three treatments", "result": "greater impact"},
      {"measurement": "ADHD RS, total score, After 3 months", "setting": "[2]; mean, after 3 months", "result": "25.29 ± 4.18"},
      {"measurement": "Hyperactive/impulsive subscale, After 3 months", "setting": "[2]; mean, after 3 months", "result": "13.25±3.05"},
      {"measurement": "Inattentive subscale, After 3 months", "setting": "[2]; mean, after 3 months", "result": "12.04±1.78"},
      {"measurement": "ADHD RS, total score, After 12 months", "setting": "[2]; mean, after 12 months", "result": "23.55 ± 1.72"},
      {"measurement": "Hyperactive/impulsive subscale, After 12 months", "setting": "[2]; mean, after 12 months", "result": "12.1±1.29"},
      {"measurement": "Inattentive subscale, After 12 months", "setting": "[2]; mean, after 12 months", "result": "11.45±1.32"},
      {"measurement": "ADHD RS, total score, Baseline", "setting": "[2]; mean, baseline", "result": "41.43±4.32 and 41.43 ± 4.39"},
      {"measurement": "Hyperactive/impulsive subscale, Baseline", "setting": "[2]; mean, baseline", "result": "19.93±5.11"},
      {"measurement": "Inattentive subscale, Baseline", "setting": "[2]; mean, baseline", "result": "21.47±3.20"},
      {"measurement": "CGI severity category reached after treatment", "setting": "[3]; from marked/severe before the treatment", "result": "mild/moderate"},
      {"measurement": "investigator rated CGI, baseline", "setting": "[3]; scale 1 (normal) to 7, baseline mean", "result": "6.30±0.65"},
      {"measurement": "investigator rated CGI, first treatment month", "setting": "[3]; scale 1 to 7, 1 month", "result": "3.67±1.21"},
      {"measurement": "investigator rated CGI severity at 3 months", "setting": "[3]; scale 1 to 7, 3 months", "result": "4.42±1.02"},
      {"measurement": "investigator rated CGI severity at 6 months", "setting": "[3]; scale 1 to 7, 6 months", "result": "3.75±0.44 and 3.90±0.45"},
      {"measurement": "Headache", "setting": "[4]; [6]", "result": 23.3, "unit": "%"},
      {"measurement": "Hiporexia", "setting": "[4]; [6]", "result": 53.3, "unit": "%"},
      {"measurement": "Irritability", "setting": "[4]; [6]", "result": 16.7, "unit": "%"},
      {"measurement": "Pallor", "setting": "[4]; [6]", "result": 16.7, "unit": "%"},
      {"measurement": "Palpitation", "setting": "[4]; [6]", "result": 13.3, "unit": "%"},
      {"measurement": "Seasickness", "setting": "[4]; [6]", "result": 1.0, "unit": "%"},
      {"measurement": "Sleeplessness", "setting": "[4]; [6]", "result": 6.7, "unit": "%"},
      {"measurement": "Tension", "setting": "[4]; [6]", "result": 16.7, "unit": "%"},
      {"measurement": "Tics", "setting": "[4]; [6]", "result": 6.7, "unit": "%"},
      {"measurement": "Tremor", "setting": "[4]; [6]", "result": 1.0, "unit": "%"},
      {"measurement": "hyporexia, number of patients", "setting": "[4]; of 30 per group", "result": 16, "unit": "patients"},
      {"measurement": "patients who left the study because of side effects", "setting": "[5]", "result": 6, "unit": "patients"},
      {"measurement": "patients who withdrew for lack of efficacy", "setting": "[5]", "result": 2, "unit": "patients"}
    ]}
  ]
}
